Experimental data as given in patent US20100298252A1, “METHODS AND COMPOSITIONS FOR OPHTHALMIC TREATMENT OF FUNGAL AND BACTERIAL INFECTIONS” (priority 2004, published 2010).

Assays:
[1] = system: Candidia albicans ATCC 90028; experiment: Antifungal MIC 50 / MIC 90 alone and combined with Tricide; type: cell-based, Candida albicans; details: for MIC50 / MIC90: ATCC90028, antifungal alone; for MIC50 / MIC90 / Summary % reduction in MIC 50 using Tricide / Summary % reduction in MIC 90 using Tricide: Candidia albicans ATCC 90028;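 on all read-outs here: MIC 50 and MIC 90 values are means, and the percent decrease is the drop in MIC when the antifungal is combined with Tricide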
[2] = system: Paecilomyces variotti ATCC 36257; experiment: as above; type: cell-based; details: for MIC50 / MIC90: ATCC36257, Paecilomyces variotti ATCC 36257, antifungal alone; for MIC50: read-out: MIC 50; for MIC90: read-out: MIC 90
Aspergillus sp. = experiment: as above; type: cell-based; details: for % decrease MIC 50 / % decrease MIC 90 / MIC 50 combined with Tricide / MIC 90 combined with Tricide: Aspergillus sp.; for MIC50 / MIC90: Aspergillus, antifungal alone; for MIC50 / MIC90 / Summary % reduction in MIC 50 using Tricide / Summary % reduction in MIC 90 using Tricide: Aspergiullus sp.
Fusarium sp. 1 = experiment: microbe, parasite or virus in culture; type: cell-based; details: for Summary % reduction in MIC 50 using Tricide / Summary % reduction in MIC 90 using Tricide: Fasarium sp. 1; for MIC50 / MIC90: antifungal alone;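 on all read-outs here: mean MIC 50 and MIC 90 values against fungal isolates, with percent decrease in MIC when the antifungal is combined with Tricide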
Fusarium sp. 2 = experiment: microbe, parasite or virus in culture; type: cell-based; details: for MIC50 / MIC90: antifungal alone
Fusarium sp. 3 = experiment: microbe, parasite or virus in culture; type: cell-based; details: for % decrease MIC 50 / % decrease MIC 90 / MIC 50 combined with Tricide / MIC 90 combined with Tricide: Tricide 540 ug/ml; for MIC50 / MIC90: antifungal alone
Penicillium sp. = experiment: Antifungal MIC 50 / MIC 90 alone and combined with Tricide; type: cell-based; details: for % decrease MIC 50 / % decrease MIC 90 / MIC 50 combined with Tricide / MIC 90 combined with Tricide: Tricide 200 ug/ml; for MIC50 / MIC90: antifungal alone
Cladosporium sp. = experiment: as above; type: cell-based; details: for MIC50 / MIC90: antifungal alone
Curvularia sp. = experiment: as above; type: cell-based; details: for Summary % reduction in MIC 50 using Tricide / Summary % reduction in MIC 90 using Tricide / MIC50 / MIC90: Curvularia sp.; for MIC50 / MIC90: antifungal alone;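 on all read-outs here: antifungal MIC 50 and MIC 90 values against fungal isolates, with percent figures expressing how much the MIC fell once Tricide was added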
Enterococcus faecalis = experiment: Antibiotic resistance profile by disc diffusion; type: cell-based; details: disc diffusion on MHA; further: key: R = resistant; I = intermediate; S = sensitive
Method: (§1) The organisms of this study were isolated from human burn patients. They included strains of methicillin resistant Staphylococcus aureus, and vancomycin resistant strains of Pseudomonas aeruginosa and Enterococcus faecalis. The bacterial isolates were propagated in or on Brain Heart Infusion broth (BHI), Mueller-Hinton Broth (MHB), blood agar (BA), Mueller-Hinton agar (MHA), enterococcus agar (EA), or 2× nutrient agar (2×NA).
(§2) Antibiotic resistance profiles were determined by the disc diffusion method on MHA (5).

Pseudomonas aeruginosa = experiment: Antibiotic resistance profile by disc diffusion; type: cell-based; details: disc diffusion on MHA; further: key: R = resistant; I = intermediate; S = sensitive
Method: as §1, §2

Staphylococcus aureus = experiment: Antibiotic resistance profile by disc diffusion; type: cell-based; details: disc diffusion on MHA; further: key: R = resistant; I = intermediate; S = sensitive
Method: as §1, §2

[3] = Paecilomyces variotti ATCC36257
[4] = Paecilomyces variotti, Tricide […]
[5] = Fusarium sp. 1, Tricide 540 ug/ml
[6] = Curvilaria sp., Tricide 200 ug/ml

SMILES: Clc1ccc(COC(Cn2ccnc2)c2ccc(Cl)cc2Cl)c(Cl)c1 (stereo not shown) [Miconazole, miconazole]
- MIC50 ([1]; Candida albicans): 0.5 µg/mL
- MIC90 ([1]; Candida albicans): > 1 µg/mL
- % decrease MIC 50 ([1]; Candida albicans, Tricide […]): 100%
- % decrease MIC 90 ([1]; Candida albicans, Tricide […]): 100%
- MIC 50 combined with Tricide ([1]; Candida albicans, Tricide […]): 0 µg/mL
- Summary % reduction in MIC 50 using Tricide [1]: 100%
- Summary % reduction in MIC 90 using Tricide [1]: 100%
- MIC50 [2]: 0.0764 µg/mL
- MIC90 [2]: > 1 µg/mL
- Summary % reduction in MIC 50 using Tricide [2, 3]: 97.4%
- % decrease MIC 50 [2, 4]: 97.4%
- MIC 50 combined with Tricide [2, 4]: 0.002 µg/mL
- MIC 90 combined with Tricide [2, 4]: >1 µg/mL
- % decrease MIC 50 (Aspergillus sp.; Tricide 200 ug/ml): 96%
- % decrease MIC 90 (Aspergillus sp.; Tricide 200 ug/ml): 84%
- MIC 50 combined with Tricide (Aspergillus sp.; Tricide 200 ug/ml): 0.1250 µg/mL
- MIC 90 combined with Tricide (Aspergillus sp.; Tricide 200 ug/ml): 2 µg/mL
- MIC50 (Aspergillus sp.): 3.11 µg/mL
- MIC90 (Aspergillus sp.): 12.4 µg/mL
- Summary % reduction in MIC 50 using Tricide (Aspergillus sp.): 96%
- Summary % reduction in MIC 90 using Tricide (Aspergillus sp.): 84%
- Summary % reduction in MIC 50 using Tricide (Fusarium sp. 1): >99.8%-100%
- Summary % reduction in MIC 90 using Tricide (Fusarium sp. 1): 99.8%-100%
- % decrease MIC 50 (Fusarium sp. 1; [5]): >99.8-100% ^
- % decrease MIC 90 (Fusarium sp. 1; [5]): 99.8-100%^
- MIC 90 combined with Tricide (Fusarium sp. 1; [5]): 0 to 0.05 µg/mL
- MIC50 (Fusarium sp. 1; Fusarium sp. 1): > 128 µg/mL
- MIC90 (Fusarium sp. 1; Fusarium sp. 1): > 128 µg/mL
- Summary % reduction in MIC 50 using Tricide (Fusarium sp. 2): >99.9%-100%
- Summary % reduction in MIC 90 using Tricide (Fusarium sp. 2): 99.9%-100%
- % decrease MIC 50 (Fusarium sp. 2; Tricide 540 ug/ml): >99.9-100% ^
- % decrease MIC 90 (Fusarium sp. 2; Tricide 540 ug/ml): 99.9-100%^
- MIC 90 combined with Tricide (Fusarium sp. 2; Tricide 540 ug/ml): 0.05 µg/mL
- MIC50 (Fusarium sp. 2): > 128 µg/mL
- MIC90 (Fusarium sp. 2): > 128 µg/mL
- Summary % reduction in MIC 50 using Tricide (Fusarium sp. 3): 100%
- Summary % reduction in MIC 90 using Tricide (Fusarium sp. 3): 100%
- % decrease MIC 50 (Fusarium sp. 3): 100%
- % decrease MIC 90 (Fusarium sp. 3): 100%
- MIC 50 combined with Tricide (Fusarium sp. 3): 0 µg/mL
- MIC 90 combined with Tricide (Fusarium sp. 3): 0 µg/mL
- MIC50 (Fusarium sp. 3): > 128 µg/mL
- MIC90 (Fusarium sp. 3): > 128 µg/mL
- Summary % reduction in MIC 50 using Tricide (Penicillium sp.): 100%
- Summary % reduction in MIC 90 using Tricide (Penicillium sp.): 100%
- % decrease MIC 50 (Penicillium sp.): 100%
- % decrease MIC 90 (Penicillium sp.): 100%
- MIC 50 combined with Tricide (Penicillium sp.): 0 µg/mL
- MIC 90 combined with Tricide (Penicillium sp.): 0 µg/mL
- MIC50 (Penicillium sp.): 0.181 µg/mL
- MIC90 (Penicillium sp.): 0.361 µg/mL
- Summary % reduction in MIC 50 using Tricide (Cladosporium sp.): 97%
- Summary % reduction in MIC 90 using Tricide (Cladosporium sp.): 98%
- % decrease MIC 50 (Cladosporium sp.; Tricide 200 ug/ml): >97%
- % decrease MIC 90 (Cladosporium sp.; Tricide 200 ug/ml): 98%
- MIC 50 combined with Tricide (Cladosporium sp.; Tricide 200 ug/ml): <0.125 µg/mL
- MIC 90 combined with Tricide (Cladosporium sp.; Tricide 200 ug/ml): 0.25 µg/mL
- MIC50 (Cladosporium sp.): 4 µg/mL
- MIC90 (Cladosporium sp.): 16 µg/mL
- % decrease MIC 50 (Curvularia sp.; [6]): 99-100% ^
- % decrease MIC 90 (Curvularia sp.; [6]): 90-100% ^
- MIC 50 combined with Tricide (Curvularia sp.; [6]): 0 to 0.0250 µg/mL
- MIC 90 combined with Tricide (Curvularia sp.; [6]): 0 to 0.4 µg/mL
- Summary % reduction in MIC 50 using Tricide (Curvularia sp.): 99-100% ^
- Summary % reduction in MIC 90 using Tricide (Curvularia sp.): 90-100% ^
- MIC50 (Curvularia sp.): 3.11 µg/mL
- MIC90 (Curvularia sp.): 4 µg/mL

SMILES: CCn1cc(C(=O)O)c(=O)c2ccc(C)nc21 [NA, nalidixic acid]
- Antibiotic resistance profile (Enterococcus faecalis): R
- Antibiotic resistance profile (Pseudomonas aeruginosa): R
- Antibiotic resistance profile (Staphylococcus aureus): R

SMILES: C[C@@H]1C/C=C/C=C/C=C/C=C/[C@H](O[C@@H]2O[C@H](C)[C@@H](O)[C@H](N)[C@@H]2O)C[C@@H]2O[C@](O)(C[C@@H](O)C[C@H]3O[C@@H]3/C=C/C(=O)O1)C[C@H](O)[C@H]2C(=O)O [Natamycin, natamycin]
- MIC50 ([1]; Candida albicans): > 14.4 µg/mL
- MIC90 ([1]; Candida albicans): > 19.2 µg/mL
- % decrease MIC 50 ([1]; Candida albicans, Tricide […]): 99.3%
- % decrease MIC 90 ([1]; Candida albicans, Tricide […]): 90%
- MIC 50 combined with Tricide ([1]; Candida albicans, Tricide […]): ≦0.10 ug/ml
- MIC 90 combined with Tricide ([1]; Candida albicans, Tricide […]): 4.92 µg/mL
- Summary % reduction in MIC 50 using Tricide [1]: 99.3%
- Summary % reduction in MIC 90 using Tricide [1]: 90%
- MIC50 [2]: 2.4 to 4.8 µg/mL
- MIC90 [2]: 9.6 µg/mL
- Summary % reduction in MIC 50 using Tricide [2, 3]: 75-87.5%^
- Summary % reduction in MIC 90 using Tricide [2, 3]: 50%
- % decrease MIC 50 [2, 4]: 75%-87.5%
- % decrease MIC 90 [2, 4]: 50%
- MIC 50 combined with Tricide [2, 4]: 0.6 µg/mL
- MIC 90 combined with Tricide [2, 4]: 4.8 µg/mL
- % decrease MIC 50 (Aspergillus sp.; Tricide 200 ug/ml): 93.8%
- % decrease MIC 90 (Aspergillus sp.; Tricide 200 ug/ml): 0%
- MIC 50 combined with Tricide (Aspergillus sp.; Tricide 200 ug/ml): 1.2 µg/mL
- MIC 90 combined with Tricide (Aspergillus sp.; Tricide 200 ug/ml): >19.2 µg/mL
- % decrease MIC 50 (Aspergillus sp.; Tricide 400 ug/ml): 100%
- % decrease MIC 90 (Aspergillus sp.; Tricide 400 ug/ml): 100%
- MIC 50 combined with Tricide (Aspergillus sp.; Tricide 400 ug/ml): 0 µg/mL
- MIC 90 combined with Tricide (Aspergillus sp.; Tricide 400 ug/ml): 0 µg/mL
- MIC50 (Aspergillus sp.): > 19.2 µg/mL
- MIC90 (Aspergillus sp.): 19.2 µg/mL
- Summary % reduction in MIC 50 using Tricide (Aspergillus sp.): 100%
- Summary % reduction in MIC 90 using Tricide (Aspergillus sp.): 100%
- Summary % reduction in MIC 50 using Tricide (Fusarium sp. 1): 100%
- Summary % reduction in MIC 90 using Tricide (Fusarium sp. 1): 100%
- % decrease MIC 50 (Fusarium sp. 1; [5]): 100%
- % decrease MIC 90 (Fusarium sp. 1; [5]): 100%
- MIC 50 combined with Tricide (Fusarium sp. 1; [5]): 0 µg/mL
- MIC 90 combined with Tricide (Fusarium sp. 1; [5]): 0 µg/mL
- MIC50 (Fusarium sp. 1; Fusarium sp. 1): > 19.2 µg/mL
- MIC90 (Fusarium sp. 1; Fusarium sp. 1): > 19.2 µg/mL
- Summary % reduction in MIC 50 using Tricide (Fusarium sp. 2): 100%
- Summary % reduction in MIC 90 using Tricide (Fusarium sp. 2): >99%-100%
- % decrease MIC 50 (Fusarium sp. 2; Tricide 540 ug/ml): 100%
- % decrease MIC 90 (Fusarium sp. 2; Tricide 540 ug/ml): >99-100% ^
- MIC 50 combined with Tricide (Fusarium sp. 2; Tricide 540 ug/ml): 0 µg/mL
- MIC 90 combined with Tricide (Fusarium sp. 2; Tricide 540 ug/ml): 0 to 1.92 µg/mL
- MIC50 (Fusarium sp. 2): > 19.2 µg/mL
- MIC90 (Fusarium sp. 2): > 19.2 µg/mL
- Summary % reduction in MIC 50 using Tricide (Fusarium sp. 3): 100%
- Summary % reduction in MIC 90 using Tricide (Fusarium sp. 3): 100%
- % decrease MIC 50 (Fusarium sp. 3): 100%
- % decrease MIC 90 (Fusarium sp. 3): 100%
- MIC 50 combined with Tricide (Fusarium sp. 3): 0 µg/mL
- MIC 90 combined with Tricide (Fusarium sp. 3): 0 µg/mL
- MIC50 (Fusarium sp. 3): > 19.2 µg/mL
- MIC90 (Fusarium sp. 3): > 19.2 µg/mL
- Summary % reduction in MIC 50 using Tricide (Penicillium sp.): 100%
- Summary % reduction in MIC 90 using Tricide (Penicillium sp.): 100%
- % decrease MIC 50 (Penicillium sp.): 100%
- % decrease MIC 90 (Penicillium sp.): 100%
- MIC 50 combined with Tricide (Penicillium sp.): 0 µg/mL
- MIC 90 combined with Tricide (Penicillium sp.): 0 µg/mL
- MIC50 (Penicillium sp.): 9.6 µg/mL
- MIC90 (Penicillium sp.): 19.2 µg/mL
- MIC50 (Cladosporium sp.): > 19.2 µg/mL
- MIC90 (Cladosporium sp.): > 19.2 µg/mL
- % decrease MIC 50 (Curvularia sp.; [6]): 100%
- % decrease MIC 90 (Curvularia sp.; [6]): 100%
- MIC 50 combined with Tricide (Curvularia sp.; [6]): 0 µg/mL
- Summary % reduction in MIC 50 using Tricide (Curvularia sp.): 100%
- Summary % reduction in MIC 90 using Tricide (Curvularia sp.): 100%
- MIC50 (Curvularia sp.): 9.6 µg/mL
- MIC90 (Curvularia sp.): 19.2 µg/mL
